Results published in patent publication US7737151B2, “Pyrazine kinase inhibitors” (Vertex Pharmaceuticals Incorporated, priority 2005, dated 2010).

Tests used:
Assay type in all cases: biochemical
Aurora-2 (Aurora A) = target: T1, Aurora-2 (Aurora A) (Homo sapiens, UniProt O14965); experiment: Aurora-2 (Aurora A) Inhibition Assay, coupled enzyme assay; details: 400 μM ATP, 570 μM Kemptide, 40 nM Aurora-2, 30° C.
T1 sequence (O14965 1-403): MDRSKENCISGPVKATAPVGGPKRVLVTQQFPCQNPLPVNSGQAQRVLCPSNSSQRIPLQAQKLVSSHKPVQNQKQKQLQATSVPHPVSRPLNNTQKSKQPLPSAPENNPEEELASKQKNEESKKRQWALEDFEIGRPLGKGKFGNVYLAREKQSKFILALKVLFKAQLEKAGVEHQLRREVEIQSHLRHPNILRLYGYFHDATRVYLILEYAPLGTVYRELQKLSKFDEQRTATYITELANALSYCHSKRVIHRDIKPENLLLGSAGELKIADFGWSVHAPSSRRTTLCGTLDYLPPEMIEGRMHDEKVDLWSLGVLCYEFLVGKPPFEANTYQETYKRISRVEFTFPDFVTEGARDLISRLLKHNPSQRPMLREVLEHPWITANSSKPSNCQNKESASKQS
Experimental: Compounds are screened for their ability to inhibit Aurora-2 using a standard coupled enzyme assay (Fox et al., Protein Sci., (1998) 7, 2249). Assays are carried out in a mixture of 100 mM Hepes (pH7.5), 100 mM MgCl2, 1 mM DTT, 25 mM NaCl, 2.5 mM phosphoenolpyruvate, 300 μM NADH, 30 μg/ml pyruvate kinase and 10 μg/ml lactate dehydrogenase. Final substrate concentrations in the assay are 400 μM ATP (Sigma Chemicals) and 570 μM peptide (Kemptide, American Peptide, Sunnyvale, Calif.). Assays are carried out at 30° C. and in the presence of 40 nM Aurora-2.
An assay stock buffer solution is prepared containing all of the reagents listed above, with the exception of Aurora-2 and the test compound of interest. 55 μl of the stock solution is placed in a 96 well plate followed by addition of 2 μl of DMSO stock containing serial dilutions of the test compound (typically starting from a final concentration of 7.5 μM). The plate is preincubated for 10 minutes at 30° C. and the reaction initiated by addition of 10 μl of Aurora-2. Initial reaction rates are determined with a Molecular Devices SpectraMax Plus plate reader over a 10 minute time course. IC50 and Ki data are calculated from non-linear regression analysis using the Prism software package (GraphPad Prism version 3.0cx for Macintosh, GraphPad Software, San Diego Calif., USA). Compounds I-1 and I-2 inhibit Aurora-2 at a Ki value of <0.1 uM.

FLT-3 = target: T2, FLT-3 (Homo sapiens, UniProt P36888); experiment: FLT-3 Inhibition Assay, radiometric filter-binding; details: 90 μM ATP, 0.5 mg/ml pE4Y, room temperature
T2 sequence (P36888 27-993): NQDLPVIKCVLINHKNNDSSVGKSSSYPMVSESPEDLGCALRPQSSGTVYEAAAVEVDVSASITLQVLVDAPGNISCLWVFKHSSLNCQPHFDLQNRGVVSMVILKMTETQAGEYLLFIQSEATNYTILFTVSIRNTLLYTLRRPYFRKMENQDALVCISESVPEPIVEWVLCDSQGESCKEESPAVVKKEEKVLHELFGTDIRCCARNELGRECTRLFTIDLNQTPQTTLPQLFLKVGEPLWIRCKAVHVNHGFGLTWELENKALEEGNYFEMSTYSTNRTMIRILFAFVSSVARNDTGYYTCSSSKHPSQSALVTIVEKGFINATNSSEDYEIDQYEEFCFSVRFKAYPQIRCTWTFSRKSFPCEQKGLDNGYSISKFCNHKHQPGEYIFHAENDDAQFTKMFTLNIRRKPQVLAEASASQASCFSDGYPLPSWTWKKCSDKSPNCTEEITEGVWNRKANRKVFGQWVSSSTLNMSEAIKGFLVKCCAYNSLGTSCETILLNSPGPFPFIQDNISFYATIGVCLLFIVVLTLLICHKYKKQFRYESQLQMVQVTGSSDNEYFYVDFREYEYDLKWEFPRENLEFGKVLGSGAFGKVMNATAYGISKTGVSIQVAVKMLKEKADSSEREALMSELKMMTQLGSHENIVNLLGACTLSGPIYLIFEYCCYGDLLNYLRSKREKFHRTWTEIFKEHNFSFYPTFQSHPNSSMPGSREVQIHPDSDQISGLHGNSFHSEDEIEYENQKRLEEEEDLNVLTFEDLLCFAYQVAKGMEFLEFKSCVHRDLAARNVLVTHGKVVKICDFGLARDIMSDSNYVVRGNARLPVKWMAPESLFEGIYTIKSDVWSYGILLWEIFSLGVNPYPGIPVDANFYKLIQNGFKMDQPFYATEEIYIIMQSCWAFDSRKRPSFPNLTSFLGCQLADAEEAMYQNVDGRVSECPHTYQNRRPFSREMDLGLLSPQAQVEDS
Experimental: Compounds are screened for their ability to inhibit FLT-3 activity using a radiometric filter-binding assay. This assay monitors the 33P incorporation into a substrate poly(Glu, Tyr) 4:1 (pE4Y). Reactions are carried out in a solution containing 100 mM HEPES (pH 7.5), 10 mM MgCl2, 25 mM NaCl, 1 mM DTT, 0.01% BSA and 2.5% DMSO. Final substrate concentrations in the assay are 90 μM ATP and 0.5 mg/ml pE4Y (both from Sigma Chemicals, St Louis, Mo.). The final concentration of a compound of the present invention is generally between 0.01 and 5 μM. Typically, a 12-point titration is conducted by preparing serial dilutions from 10 mM DMSO stock of test compound. Reactions are carried out at room temperature.
Two assay solutions are prepared. Solution 1 contains 100 mM HEPES (pH 7.5), 10 mM MgCl2, 25 mM NaCl, 1 mg/ml pE4Y and […] (containing 0.3 mCi of [γ-33^P]ATP for each reaction). Solution 2 contains 100 mM HEPES (pH 7.5), 10 mM MgCl2, 25 mM NaCl, 2 mM DTT, 0.02% BSA and 3 nM FLT-3. The assay is run on a 96 well plate by mixing 50 μl each of Solution 1 and […] of the compounds of the present invention. The reaction is initiated with Solution 2. […] The amount of ^33P incorporation into pE4y is analyzed by a Packard Top Count Microplate Scintillation Counter (Meriden, Conn.). […]

Aurora-1 (Aurora B) = Aurora-1 (Aurora B) (Homo sapiens, UniProt Q96GD4); experiment: Aurora-1 (Aurora B) Inhibition Assay (Radiometric); details: 800 μM ATP, Kemptide, 25° C.; read-out: Ki, Aurora-1 (Aurora B) radiometric assay (sentence prints Aurora-2)
Aurora-1 (Aurora B), sequence (Q96GD4 whole entry): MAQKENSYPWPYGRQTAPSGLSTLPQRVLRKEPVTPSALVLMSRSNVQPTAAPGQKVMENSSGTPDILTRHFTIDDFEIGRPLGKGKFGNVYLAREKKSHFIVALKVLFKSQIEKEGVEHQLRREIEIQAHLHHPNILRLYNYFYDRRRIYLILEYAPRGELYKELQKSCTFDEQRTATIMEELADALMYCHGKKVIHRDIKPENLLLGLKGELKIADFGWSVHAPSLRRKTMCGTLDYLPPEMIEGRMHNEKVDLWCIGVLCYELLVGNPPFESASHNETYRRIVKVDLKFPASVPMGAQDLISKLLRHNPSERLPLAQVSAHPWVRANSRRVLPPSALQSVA
Experimental: An assay buffer solution is prepared which consisted of 25 mM HEPES (pH 7.5), 10 mM MgCl2, 0.1% BSA and 10% glycerol. A 22 nM Aurora-B solution, also containing 1.7 mM DTT and 1.5 mM Kemptide (LRRASLG), is prepared in assay buffer. To 22 μL of the Aurora-B solution, in a 96-well plate, is added 2 μl of a compound stock solution in DMSO and the mixture allowed to equilibrate for 10 minutes at 25° C. The enzyme reaction is initiated by the addition of 16 μl stock [γ-^33P]-ATP solution (˜20 nCi/μL) prepared in assay buffer, to a final assay concentration of 800 μM. The reaction is stopped after 3 hours by the addition of 16 μL 500 mM phosphoric acid and the levels of ^33P incorporation into the peptide substrate are determined by the following method. […] Levels of non-enzyme catalysed background radioactivity are determined by adding 16 μL of the 500 mM phosphoric acid to control wells, containing all assay components (which acts to denature the enzyme), prior to the addition of the [γ-^33P]-ATP solution. Levels of enzyme catalysed ^33P incorporation are calculated by subtracting mean background counts from those measured at each inhibitor concentration. […] Ki values are calculated from initial rate data by non-linear regression using the Prism software package (Prism 3.0, Graphpad Software, San Diego, Calif.). […]

Ki (Aurora-2 (Aurora A))	Ki (FLT-3)	Ki (Aurora-1 (Aurora B))	SMILES
< 0.1 µM	< 1 µM		Cc1cnc(Nc2cncc(Sc3ccc(NC(=O)C4CC4)cc3)n2)s1 [Compound I-1, N-(4-(6-(5-methylthiazol-2ylamino)pyrazin-2-ylthio)phenyl)cyclopropanecarboxamide]
< 0.1 µM	< 1 µM	< 1 µM	Cc1cc(Nc2cncc(Sc3ccc(NC(=O)C4CC4)cc3)n2)[nH]n1 [Compound I-2, N-(4-(6-(3-methyl-1H-pyrazol-5-ylamino)pyrazin-2-ylthio)phenyl)cyclopropanecarboxamide]
